Source: patent US7754866B2 (Arena Pharmaceuticals, Inc., priority 1997, dated 2010)
Positions count from the first letter of the chain named. Like-named read-outs stand apart in the source and are kept apart here.

Columns and labels:
[1] = biological target: T1, mutated human 5HT2C receptor (AP-1) (Homo sapiens, UniProt P28335, S310K); test: Competitive binding assay, [3H]mesulergine, AP-1; details: Competitive Binding AP-1 ([3H]mesulergine) IC50 Value (μM), 1 nM [3H]mesulergine, COS7 membranes
T1 construct: expressed in transfected cells; host or cells: COS7 cells, pCMV vector, transient
T1 sequence (P28335 33-458 S310K): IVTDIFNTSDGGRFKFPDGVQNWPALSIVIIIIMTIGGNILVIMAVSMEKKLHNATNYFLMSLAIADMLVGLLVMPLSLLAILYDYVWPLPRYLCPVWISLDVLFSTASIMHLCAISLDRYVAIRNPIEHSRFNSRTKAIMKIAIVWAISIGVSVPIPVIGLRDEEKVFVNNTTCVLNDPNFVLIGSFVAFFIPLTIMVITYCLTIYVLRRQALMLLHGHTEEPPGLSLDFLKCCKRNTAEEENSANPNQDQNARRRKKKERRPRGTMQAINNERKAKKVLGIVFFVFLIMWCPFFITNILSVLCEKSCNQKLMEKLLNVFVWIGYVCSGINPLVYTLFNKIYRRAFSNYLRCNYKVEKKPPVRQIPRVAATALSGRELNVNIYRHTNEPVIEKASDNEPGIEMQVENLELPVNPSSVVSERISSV

[2] = biological target: T2, 5HT2A receptors (fourth layer of the cerebral cortex) (Rattus norvegicus, UniProt P14842); test: I125-LSD displacement from rat brain sections, cerebral cortex; format: binding, Sprague-Dawley rats; details: 1 micromolar compound, 1 nanomolar I125-LSD, autoradiography
T2 construct: from tissue; host or cells: horizontal sections of Sprague-Dawley rat brain, cerebral cortex
T2 sequence (P14842 whole entry): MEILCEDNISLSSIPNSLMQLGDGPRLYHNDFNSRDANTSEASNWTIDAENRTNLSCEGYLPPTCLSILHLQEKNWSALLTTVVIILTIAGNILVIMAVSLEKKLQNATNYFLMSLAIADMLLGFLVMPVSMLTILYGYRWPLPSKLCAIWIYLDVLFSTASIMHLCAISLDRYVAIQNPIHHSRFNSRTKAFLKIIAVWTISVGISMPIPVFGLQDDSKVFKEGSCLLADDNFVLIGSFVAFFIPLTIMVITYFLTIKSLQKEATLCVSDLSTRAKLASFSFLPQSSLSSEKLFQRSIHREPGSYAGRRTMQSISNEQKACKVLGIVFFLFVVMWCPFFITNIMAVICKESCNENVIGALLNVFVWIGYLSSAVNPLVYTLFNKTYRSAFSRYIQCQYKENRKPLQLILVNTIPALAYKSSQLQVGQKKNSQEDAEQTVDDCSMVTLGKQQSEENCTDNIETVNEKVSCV

[3] = biological target: T3, wild type human 5HT2A receptor (Homo sapiens, UniProt P28223); test: Competitive binding assay, [3H]LSD, WT 5HT2A
T3 construct: expressed in transfected cells; host or cells: COS-7 cells, pCMV vector
T3 sequence (P28223 whole entry T25N/H452Y): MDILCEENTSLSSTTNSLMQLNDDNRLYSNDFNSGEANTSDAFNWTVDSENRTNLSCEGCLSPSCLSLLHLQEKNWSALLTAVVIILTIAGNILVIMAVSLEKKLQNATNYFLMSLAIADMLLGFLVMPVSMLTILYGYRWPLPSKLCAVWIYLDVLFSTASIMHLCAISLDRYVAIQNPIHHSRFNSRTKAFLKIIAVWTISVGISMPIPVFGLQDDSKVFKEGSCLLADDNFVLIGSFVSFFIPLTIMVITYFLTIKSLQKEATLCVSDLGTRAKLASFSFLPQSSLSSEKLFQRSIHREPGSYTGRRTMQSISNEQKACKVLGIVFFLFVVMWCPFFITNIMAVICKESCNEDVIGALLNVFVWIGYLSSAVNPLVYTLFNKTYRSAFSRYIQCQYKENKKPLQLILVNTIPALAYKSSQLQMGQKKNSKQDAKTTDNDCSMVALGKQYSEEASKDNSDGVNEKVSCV

[4] = test system: dopamine D2 receptors (caudate nucleus); test: I125-LSD displacement from rat brain sections, caudate nucleus; format: binding, Sprague-Dawley rats; details: 1 micromolar compound, 1 nanomolar I125-LSD, autoradiography
[5] = biological target: T4, human mutated 5HT2A receptor, AP-3 (Homo sapiens, UniProt P28223, T25N); test: Inositol phosphate accumulation assay, AP-3; format: cell-based; details: for remaining activity at 10 µM: read-out: IP3 % of Control;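 on all read-outs here: transfected 293 cells prelabeled with 3H-inositol, exposed to compound 120 min at 37 °C with LiCl and pargyline, inositol trisphosphates isolated by anion exchange and counted by scintillation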
T4 construct: Inositol Phosphate Accumulation AP-3 IC50 Value (nM); other: several concentrations; IP3 % of Control; other: one concentration of 10 μM, triplicate; control without test compound
T4 sequence (P28223 whole entry T25N, looked up): as the sequence (P28223 whole entry T25N/H452Y) above, with Y452H counted along it

[6] = biological target: T5, endogenous human 5-HT2C receptor (Homo sapiens, UniProt P28335)
T5 sequence (P28335 33-458): T1 sequence (P28335 33-458 S310K) with K278S

[7] = biological target: T6, constitutively active mutant human 5HT2C receptor AP-1 (Homo sapiens, UniProt P28335, S310K); test: [35S]GTPγS binding assay with membranes of COS7 cells expressing AP-1; format: biochemical
T6 construct: expressed in transfected cells; host or cells: COS7 cells, pCMV vector, transient
T6 sequence (P28335 33-458 S310K): T1 sequence (P28335 33-458 S310K)

[8] = test system: amphetamine-stimulated locomotion; test: Amphetamine-stimulated locomotor activity; format: in vivo, Sprague-Dawley rats; details: rats, s.c. 0.1, 1.0, 5.0 mg/kg; with exception of the highest dose (10 mg/kg); d-amphetamine sulfate 1.0 mg/kg
Text: A 5HT2A receptor antagonist or inverse agonist is expected to decrease amphetamine-stimulated locomotion without affecting baseline locomotion See, for example, Soresnon, et al, 266(2) J. Pharmacol. Exp. Ther. 684 (1993). […] For the following study, the following parameters and protocol were utilized:
Adult male Sprague-Dawley rats were utilized for these studies. Animals were housed in groups of 2-3 in hanging plastic cages with food and water available at all times. Animals were weighed and handled for at least one day prior to surgery and throughout the studies. For these studies, Vehicle consisted of 90% ethanol (100%) and 10% water.
A San Diego Instruments Flex Field apparatus was used to quantify baseline and amphetamine-stimulated locomotor activity. This apparatus consists of four 16″×16″ clear plastic open fields. Photocell arrays (16 in each dimension) interfaced with a personal computer to automatically quantify activity. Several measures of activity can be assessed with the apparatus, including total photocell beam breaks. Animals (vehicle control and Compound treated) were injected s.c. 30 minutes prior to initiation of analysis. Following this 30 minute period, animals were placed individually into an open field and baseline activity was assessed for 30 minutes (habituation phase). […]

[9] = biological target: T7, human mutated 5HT2A receptor, AP-3 (Homo sapiens, UniProt P28223, T25N, form not given); test: Inositol phosphate accumulation assay, AP-3; format: cell-based; details: summary statement;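 further: transfected 293 cells prelabeled with 3H-inositol, exposed to compound 120 min at 37 °C with LiCl and pargyline, inositol trisphosphates isolated by anion exchange and counted by scintillation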
T7 construct: rows headed: inverse agonist activity at the human 5HT2A receptor; other: summary statement; fused on or other part: Possibly intracellular loop 3 and cytoplasmic tail of human 5-HT2C (P28335), if the statement rests on AP-3
T7 sequence (P28223 whole entry T25N, looked up, form open, the tested form may be a part): as the sequence (P28223 whole entry T25N/H452Y) above, with Y452H counted along it

[10] = 12.5 μg COS7 membranes expressing AP-1, 1 μM GDP, eight concentrations in triplicate, read-out: IC50 (nM) in GTP-γ-[35S] Assay
[11] = competitive binding using LSD, read-out: WT 5HT2A LSD IC50

## COc1ccc(OC(=O)Nc2cccc(-c3nn(C)cc3Br)c2)cc1 [Compound 116100, N-[3-(4-bromo-1-methylpyrazol-3-yl)phenyl][4-methoxyphenoxy]carboxamide]
[1]
  IC50: 1.8 µM
other
  melting point: 140.3 to 141.8 °C
[2]
  displacement of I125-LSD from the cortex (5HT2A): selectively displace
[3]
  IC50: < 0.001 µM
[4]
  displacement of I125-LSD from the caudate (dopamine D2): not the caudate
[5]; Inositol Phosphate Accumulation AP-3 IC50 Value (μM)
  IC50: 0.0003 µM

## Cn1cc(Br)c(-c2cccc(NC(=O)NCc3ccc(OC(F)(F)F)cc3)c2)n1 [Compound 116115]
[1]
  IC50: 1.2 µM
other
  melting point: 144.6 to 145.8 °C

## CN1CCN2c3ccccc3Cc3ccccc3C2C1 (centres unmarked) [mianserin]
[6]
  effect on basal constitutive binding of [35S]GTPγS: partial inverse agonist
[6]; 30 μM
  inhibition of serotonin-stimulated [35S]GTPγS binding: completely inhibited

## Clc1ccc2c(c1)N=C(N1CCNCC1)c1ccccc1N2 [Normethylclozapin]
[7]; [10]
  IC50: 21.4 nM

## Cn1cc(Br)c(-c2cccc(NC(=O)c3ccc(OC(F)(F)F)cc3)c2)n1 [Compound 116101, N-[3-(4-bromo-1-methylpyrazol-3-yl)phenyl][4-trifluoromethoxyphenyl]carboxamide]
other
  melting point: 138.6 to 139.6 °C

## Cn1cc(Br)c(-c2cccc(NC(=O)c3ccc(Cl)cc3)c2)n1 [Compound 116120, N-[3-(4-bromo-1-methylpyrazol-3-yl)phenyl][4-chlorophenyl]carboxamide]
[1]
  IC50: 1.2 µM
other
  melting point: 184.4 to 184.8 °C

## O=C(CCCN1CCC2(CC1)C(=O)NCN2c1ccccc1)c1ccc(F)cc1 [spiperone, reference compound]
[2]
  displacement of I125-LSD from the cortex (5HT2A): displaces
[4]
  displacement of I125-LSD from the caudate (dopamine D2): displaces

## CC[C@@H](CO)NC(=O)[C@@H]1C=C2c3cccc4c3c(cn4C)C[C@H]2N(C)C1 [Methysergide]
[7]
  IC50: 6.1 nM

## Cn1cc(Br)c(-c2cccc(NC(=O)c3cccs3)c2)n1 [Compound 116102, N-[3-(4-bromo-1-methylpyrazol-3-yl)phenyl][2-thienyl]carboxamide]
[8]
  amphetamine-stimulated locomotion (photobeam breaks): decrease
[1]
  IC50: 2.8 µM
other
  melting point: 127.8 to 128.6 °C
[9]
  inverse agonist activity at the human 5HT2A receptor: potent inverse agonist

## CSc1ccc2c(c1)C(N1CCN(C)CC1)Cc1ccccc1S2 (centres unmarked) [Methiothepin]
[7]; [10]
  IC50: 20.4 nM

## Cn1cc(Br)c(-c2cccc(NC(=O)Nc3ccc(SC(F)(F)F)cc3)c2)n1 [Compound 116139, {[3-(4-bromo-1-methylpyrazol-3-yl)phenyl]-amino}-N-[4-(trifluoromethylthio)phenyl]carboxamide]
[3]; [11]
  IC50: 0.056 µM
[5]
  remaining activity at 10 µM: 12%

## Cn1cc(Br)c(-c2cccc(NC(=O)Cc3ccc([N+](=O)[O-])cc3)c2)n1 [Compound 116177, N-[3-(4-bromo-1-methylpyrazol-3-yl)phenyl]-2-(4-nitrophenyl)acetamide]
[3]; [11]
  IC50: 0.108 µM
[5]; several concentrations, read-out: IP3 AP-3 IC50
  IC50: 0.061 µM

## CN(C)c1ccc(NC(=O)Nc2cccc(-c3nn(C)cc3Br)c2)cc1 [Compound 116122, N-[4-(dimethylamino)phenyl]{[3-(4-bromo-1-methylpyrazol-3-yl)phenyl]amino}carboxamide]
[3]; [11]
  IC50: 0.309 µM
[5]; one concentration of 10 μM, triplicate, control without test compound
  remaining activity at 10 µM: 9%

## Cc1nc2sccn2c(=O)c1CCN1CCC(=C(c2ccc(F)cc2)c2ccc(F)cc2)CC1 [Ritanserin]
[7]; read-out: IC50 (nM) in GTP-γ-[35S] Assay
  IC50: 19.4 nM
